Laboratory results: patent publication US20140303152A1, “BENZOTHIAZINETHIONE DERIVATIVES AND PREPARATION METHODS AND USES THEREOF” (SICHUAN UNIVERSITY, priority 2011, published 2014)
Converted amounts (≈) assume the structure as drawn. “And” between values parts separate entries of the source, which are not always exact repeats. Equal entries are not always repeated. Where two headings read alike, the source gives them in different places.

Experiments:
[1] = test system: mycobacterium tuberculosis H37Rv; assay: In vitro inhibition test on Mycobacterium tuberculosis (H37Rv); assay type: cell-based; settings: for MIC90 / MIC99: Mycobacterium tuberculosis; for MIC99: 264 h; for inhibitory effects on mycobacterium tuberculosis (H37Rv): result in words
[2] = test system: 293 cells; assay: Cytotoxicity test (MTT method); assay type: cell-based; settings: Homo sapiens
[3] = test system: Bacillus Calmette Guerin (BCG); assay type: in vivo, BABL/C mice; settings: for Colony count results after treatment for 28 days (spleens and lungs): BCG-infected mice, FIG. 1; for Lung pathological examination, anti-BCG infection treatment effects: HE staining, FIG. 2
[4] = test system: Mycobacterium tuberculosis (H37Ra); assay: In vitro inhibition test on Mycobacterium tuberculosis (H37Ra); assay type: cell-based
[5] = Acute toxicity test of compound If, blood biochemical detection; assay type: in vivo; set-up: Blood urea nitrogen / Total cholesterol / Creatine kinase / Creatinine / Blood glucose / Triglyceride / Total bilirubin / Alanine aminotransferase / Aspartate aminotransferase: unit not given here
Protocol: • 1. Experimental method, 1) If, intraperitoneal suspension, at dose of 2.5 g/kg; 2) adjuvant: 1% sodium carboxymethylcellulose (CMC-Na), 1% tween-80; 3) 10 BABL/C male and female mice, 6-8 weeks old, and weight of 20±2 g. The 10 mice were randomly divided into 2 groups, 5 mice for each group, and a solvent control group is set. Single intraperitoneal injection of 2.5 g/kg was given to the (1) drug group and (2) solvent control group within 24 h; physical signs, behavioral activities, glandular secretion, breath, stool, genitals, death and other poisoning manifestations of the mice were constantly observed every 4 h after administration, and the mice were killed after observation for 24 h, 5) blood was taken from eyeballs, and then the mice were killed, 800 μl whole blood was taken, centrifuged at 1300 r/min for 15 min, and 200 μl supernatant serum was taken for blood biochemical detection, including the following evaluation indicators: aspartate aminotransferase (AST), alanine aminotransferase (ALT), creatine kinase (CK), alkaline phosphatase (ALP), blood urea nitrogen (BUN), total protein (TP), albumin (Alb), blood glucose (GLU), total bilirubin (T-BIL), creatinine (Crea), total cholesterol (Chol) and triglyceride (TG), with 12 items in total. • 2.

[6] = high dose group, 75 mg/kg i.p. once every day
[7] = low dose group, 25 mg/kg i.p. once every day
[8] = H37Rv, generally observed 11 days after inoculation, read-out: MIC99
[9] = H37Rv, generally observed 5-7 days after inoculation, read-out: MIC90
[10] = HEK293, 293 cells, MTT, 48 h, read-out: IC50
[11] = serum of individual mice 6-10, If 2.5 g/kg i.p., 24 h

| Structure (SMILES) | MIC90 ([1]; H37RV) [µg/mL] | MIC99 ([1]; H37RV) [µg/mL] | IC50 ([2]; HEK293, 48 h) [µM] | MIC99 [1, 8] [µg/mL] | MIC90 [1, 9] [µg/mL] | inhibitory effects on mycobacterium tuberculosis (H37Rv) [1] | IC90 [4] [µM] | IC50 [2, 10] [µM] | other results |
| --- | --- | --- | --- | --- | --- | --- | --- | --- | --- |
| CCNc1nc(=S)c2cc([N+](=O)[O-])cc([N+](=O)[O-])c2s1 [Ic, 2-(ethylamino)-6,8-dinitro-4H-benzo[e][1,3]thiazine-4-thione] | 2 (≈ 6.4 µM) | 8 (≈ 25.6 µM) | > 500 |  |  |  |  |  |  |
| O=[N+]([O-])c1cc([N+](=O)[O-])c2sc(N3CCCCC3)nc(=S)c2c1 [Ie, 6,8-dinitro-2-(piperidine-1-alkyl)-4H-benzo[e][1,3]thiazine-4-thione] | 1 (≈ 2.84 µM) | 4 (≈ 11.4 µM) | > 500 |  |  |  |  |  |  |
| CNc1nc(=S)c2cc([N+](=O)[O-])cc([N+](=O)[O-])c2s1 [Id, 2-(methylamino)-6,8-dinitro-4H-benzo[e][1,3]thiazine-4-thione] | 2 (≈ 6.7 µM) | 4 (≈ 13.4 µM) | > 500 |  |  |  |  |  |  |
| O=[N+]([O-])c1cc(C(F)(F)F)cc2c(=S)nc(N3CCC4(CC3)OCCO4)sc12 [Compound If, 8-nitro-2-(1,4-dio-8-aza[4.5]dec-8-yl)-6-(trifluoromethyl)-4H-benzo[e][1,3]thiazine-4-thione] |  |  |  | 0.0312 (≈ 0.0721 µM) | 0.0312 (≈ 0.0721 µM) | equivalent to or even better than those of isoniazide | 0.1 | > 500 | Colony count results after treatment for 28 days (spleens and lungs) [3, 6]: slightly inferior to those of isoniazide, but obviously superior to those of the model group; Lung pathological examination, anti-BCG infection treatment effects [3, 6]: equivalent to those of the isoniazide (positive) control group; Colony count results after treatment for 28 days (spleens and lungs) [3, 7]: inhibitory effects on BCG growth of mouse spleens and lungs; Lung pathological examination, anti-BCG infection treatment effects [3, 7]: obviously superior to those of the solvent group, but inferior to the isoniazide (positive) control group and the If high dose group; acute toxicity ([5]; 2.5 g/kg single intraperitoneal injection, mice, observation 24 h): no obvious acute toxicity; Alanine aminotransferase [5, 11]: 10 and 16 (2×) and 12 and 11; Albumin [5, 11]: 31.5 and 34.0 and 33.1 and 33.4 and 32.2; Alkaline phosphatase [5, 11]: 166 and 134 and 156 and 175 and 165; Aspartate aminotransferase [5, 11]: 145 and 148 and 149 and 156 and 169; Blood glucose [5, 11]: 6.3 and 4.3 and 4.9 and 4.5 and 5.1; Blood urea nitrogen [5, 11]: 6.7 and 5.5 and 6.3 and 8.9 and 7.9; Creatine kinase [5, 11]: 67 and 54 and 65 and 66 and 74; Creatinine [5, 11]: −12 (2×) and −6 and −15 and −4; Total bilirubin [5, 11]: −0.6 (2×) and −0.5 and −1.2 and −0.4; Total cholesterol [5, 11]: 3.35 and 3.21 and 3.34 and 3.53 and 3.14; Total protein [5, 11]: 70.1 and 65.6 and 66.7 and 73.8 and 65.7; Triglyceride [5, 11]: 2.10 and 1.80 and 2.53 and 2.17 and 2.24 |
| O=[N+]([O-])c1cc(C(F)(F)F)cc2c(=S)nc(N3CCOCC3)sc12 [Ih, 2-morpholinyl-8-nitro-6-(trifluoromethyl)-4H-benzo[e][1,3]thiazine-4-thione] |  |  |  | 0.0312 (≈ 0.0828 µM) | 0.0312 (≈ 0.0828 µM) | equivalent to or even better than those of isoniazide | 0.8 | > 500 |  |
| O=[N+]([O-])c1cc([N+](=O)[O-])c2sc(N3CCOCC3)nc(=S)c2c1 [Ig, 2-morpholinyl-6,8-dinitro-4H-benzo[e][1,3]thiazine-4-thione] | 0.0625 (≈ 0.176 µM) | 0.125 (≈ 0.353 µM) | > 500 |  |  | equivalent to or even better than those of isoniazide | 0.8 |  |  |
| O=[N+]([O-])c1cc([N+](=O)[O-])c2sc(Nc3ccc(C(F)(F)F)cc3)nc(=S)c2c1 [Ib, 6,8-dinitro-2-(4-(trifluoromethyl)anilino)-4H-benzo[e][1,3]thiazine-4-thione] | 4 (≈ 9.34 µM) | 16 (≈ 37.4 µM) | > 500 |  |  |  |  |  |  |
| Fc1cc2c(=S)nc(Nc3ccc(Br)cn3)sc2c(F)c1F [Ia, 2-(5-bromopyridine-2-amino)-6,7,8-trifluoro-4H-benzo[e][1,3]thiazine-4-thione] |  |  |  | 16 (≈ 39.6 µM) | 8 (≈ 19.8 µM) |  |  | > 500 |  |
| NNC(=O)c1ccncc1 [Isoniazide, reference compound] |  |  |  | 0.0625 (≈ 0.456 µM) | 0.0625 (≈ 0.456 µM) |  | 0.8 |  |  |
